# Measured values taken from patent publication US8987171B2, “Selective herbicides with activator adjuvants” (W. Neudorff GmbH KG, priority 2010, dated 2015).
# Like-named read-outs stand apart in the source and are kept apart here.
# Tests used:
# white clover [1] = assay: Greenhouse white clover and turf test, iron chelates with Bio-Soft D-40 (Example 3): white clover damage; assay type: in vivo, white clover (Trifolium repens); conditions: sprayed twice at 200 ml/m^2, one day after first spraying, visual rating 0-100%
# Procedure: (§1) The following non-limiting examples serve to further describe the invention. Unless otherwise specified, all of the iron solutions were made using the same molar concentration of iron ion as chelating agent. Samples were prepared by diluting a metal chelate, such as iron GLDA (Dissolvine GL-Fe-5), iron EDDS (Enviomet C320), or iron HEDTA (Neu 1173H), to the desired level of iron as specified using simple stirring. Neu 1173H contains the stabilizer sodium citrate at 1.5% prior to dilution. Dilutions of Neu1173H to the level of 0.25% Fe, incorporates 0.08% sodium citrate into the spray solutions. Adjuvants (Sylgard® 309, Biosoft®D-40, Tween® 20), were then diluted and added to the diluted metal chelate. Samples were usually prepared within 48 hours of spraying. All of the outside tests were done on areas of mixed grass and white clover that were at least 2 months old. For the greenhouse tests, white clover and black medic were grown in a commercial greenhouse mix using supplemental lighting and heating. Each plant was grown in a 2¼ inch pot to a minimum diameter of 15-20 cm. Perennial ryegrass was grown in 2¼ inch pots in the same greenhouse conditions as above and they are at least 4 weeks old at the time of application. […]
# (§2) All plant damage was visually assessed using a percentage rating scale from 0 (no injury) to 100% (death). […]
# perennial ryegrass [2] = assay type: in vivo; conditions: greenhouse, sprayed twice at 200 ml/m^2, one day after first spraying, visual rating 0-100%
# Procedure: as §1, §2
# perennial ryegrass [3] = assay: Greenhouse white clover and turf test, iron chelates with Tween 20 (Example 5): grass damage; assay type: in vivo; conditions: sprayed twice at 200 ml/m^2, one day after first spraying, visual rating 0-100%
# Procedure: as §1, §2
# black medic = assay: Greenhouse black medic and turf test, iron chelates with Sylgard 309 (Example 2): black medic damage; assay type: in vivo; conditions: sprayed twice at 200 ml/m^2, 7 days after first spraying, visual rating 0-100%
# Procedure: as §1, §2
# white clover [4] = assay: Field white clover and turf test, iron chelates with Bio-Soft D-40 (Example 4): white clover damage; assay type: in vivo, white clover (Trifolium repens); conditions: sprayed twice at 200 ml/m^2, 14 days after second spraying, visual rating 0-100%
# Procedure: as §1, §2
# park lawn [5] = assay: Field English daisy and turf test, iron chelates with Sylgard 309 (Example 8): grass damage; assay type: in vivo; conditions: sprayed twice at 200 ml/m^2, 5 days after first spraying, visual rating 0-100%
# Procedure: as §1, §2
# perennial ryegrass [6] = assay: Greenhouse black medic and turf test, iron chelates with Sylgard 309 (Example 2): grass damage; assay type: in vivo; conditions: sprayed twice at 200 ml/m^2, 7 days after first spraying, visual rating 0-100%
# Procedure: as §1, §2
# perennial ryegrass [7] = assay: Greenhouse white clover and turf test, iron chelates with Sylgard 309 (Example 1): grass damage; assay type: in vivo; conditions: sprayed twice at 200 ml/m^2, 7 days after second spraying, visual rating 0 (no injury) to 100% (death)
# Procedure: as §1, §2
# English daisy [8] = assay: Field English daisy and turf test, iron chelates with Sylgard 309 (Example 8): English daisy damage; assay type: in vivo, English daisy (Bellis perennis); conditions: sprayed twice at 200 ml/m^2, 5 days after first spraying, visual rating 0-100%
# Procedure: as §1, §2
# park lawn [9] = assay: Field white clover and turf test, iron chelates with Bio-Soft D-40 (Example 4): grass damage; assay type: in vivo; conditions: sprayed twice at 200 ml/m^2, 14 days after second spraying, visual rating 0-100%
# Procedure: as §1, §2
# white clover [10] = assay: Greenhouse white clover and turf test, iron chelates with Tween 20 (Example 5): white clover damage; assay type: in vivo, white clover (Trifolium repens); conditions: sprayed twice at 200 ml/m^2, one day after first spraying, visual rating 0-100%
# Procedure: as §1, §2
# white clover [11] = assay: Greenhouse white clover and turf test, iron chelates with Sylgard 309 (Example 1): white clover damage; assay type: in vivo, white clover (Trifolium repens); conditions: sprayed twice at 200 ml/m^2, 7 days after second spraying, visual rating 0-100%
# Procedure: as §1, §2
# perennial ryegrass [12] = assay: Greenhouse dandelion and turf test, iron chelates with Sylgard 309 (Example 7): grass damage; assay type: in vivo; conditions: sprayed twice at 200 ml/m^2, 7 days after first spraying, visual rating 0-100%
# Procedure: as §1, §2
# dandelion = assay: Greenhouse dandelion and turf test, iron chelates with Sylgard 309 (Example 7): dandelion damage; assay type: in vivo, dandelion (Taraxacum officinale); conditions: sprayed twice at 200 ml/m^2, 7 days after first spraying, visual rating 0-100%
# Procedure: as §1, §2
# white clover [13] = assay: Greenhouse white clover and turf test, iron chelates with Sylgard 309 (Example 6): white clover damage; assay type: in vivo, white clover (Trifolium repens); conditions: sprayed twice at 200 ml/m^2, 14 days after second spraying, visual rating 0-100%
# Procedure: as §1, §2
# English daisy [14] = assay: Field English daisy and turf test, iron chelates with Sylgard 309 and Bio-Soft D-40 (Example 9): English daisy damage; assay type: in vivo, English daisy (Bellis perennis); conditions: sprayed twice at 100 ml/m^2, 7 days after first spraying, visual rating 0-100%
# Procedure: as §1, §2
# perennial ryegrass [15] = assay: Greenhouse white clover and turf test, iron chelates with Sylgard 309 (Example 6): grass damage; assay type: in vivo; conditions: sprayed twice at 200 ml/m^2, 14 days after second spraying, visual rating 0-100%
# Procedure: as §1, §2
# park lawn [16] = assay: Field English daisy and turf test, iron chelates with Sylgard 309 and Bio-Soft D-40 (Example 9): grass damage; assay type: in vivo; conditions: sprayed twice at 100 ml/m^2, 7 days after first spraying, visual rating 0-100%
# Procedure: as §1, §2
Substance,White Clover Damage (%) (white clover [1]),Grass Damage (%) (perennial ryegrass [2]),Grass Damage (%) (perennial ryegrass [3]),Black Medic Damage (%) (black medic),White Clover Damage (%) (white clover [4]),Grass Damage (%) (park lawn [5]),Grass Damage (%) (perennial ryegrass [6]),Grass Damage (%) (perennial ryegrass [7]),English daisy Damage (%) (English daisy [8]),Grass Damage (%) (park lawn [9]),White Clover Damage (%) (white clover [10]),White Clover Damage (%) (white clover [11]),Grass Damage (%) (perennial ryegrass [12]),Dandelion Damage (%) (dandelion),White Clover Damage (%) (white clover [13]),English daisy Damage (%) (English daisy [14]),Grass Damage (%) (perennial ryegrass [15]),Grass Damage (%) (park lawn [16])
iron ethylenediaminedisuccinate [FeEDDS 2.49% a.i. (0.4% Fe)],15,1,0,28,38,4,2,3,39,1,18,27,–,–,–,–,–,–
iron glutamicaciddiacetic acid [FeGLDA 2.28% a.i. (0.4% Fe)],8,0,–,–,–,–,–,8,–,–,–,7,6,38,–,–,–,–
iron hydroxyethylenediaminetriacetic acid [FeHEDTA 1.5% a.i (0.25% Fe)],–,–,–,54,–,–,3,–,–,–,–,–,–,–,46,81,2,2
